Data taken from US20200140560A1, “PROTEASE BASED SWITCH CHIMERIC ANTIGEN RECEPTORS FOR SAFER CELL IMMUNOTHERAPY” (CELLECTIS, priority 2017, published 2020).
“Also recorded” adds a separate entry of the source.

Legend:
[1] = tested on: Raji target cells killed by SWOFF anti-CD22 CAR T-cells (TRAC locus integration); test: Cytotoxicity of T-cells with SWOFF anti-CD22 CAR integrated at the TRAC locus against luciferase-expressing Raji cells, Asunaprevir dose response; format: cell-based, human
Source text: Data are shown as median with 95% confidence intervals of triplicates per points. N=2, performed in triplicates.
T-cells were then passaged the day prior to the transfection/transduction at 1×10^6 cells/ml in complete media. On the day of transfection/transduction, the cells were de-beaded by magnetic separation (EasySep), washed twice in Cytoporation buffer T (BTX Harvard Apparatus, Holliston, Mass.), and resuspended at a final concentration of 28×10^6 cells/ml in the same solution.
The electroporated cells were then immediately transferred to a 12-well plate containing 1 ml of prewarmed X-vivo-15 serum-free media and incubated for 37° C. for 15 min. The cells were then plated at a concentration of 10,000 cells/well with AAV in a 20 μl total volume of serum-free media (MOI: 1×10^5 vg/cells) in 96-well round bottom plates. […] 100 pL of fresh complete media was then added. Six days after transduction, 0.5×10^6 cells were seeded in a G-Rex 24-well plate (Wilson Wolf) in 5 ml of complete X-vivo-15 media and cultivated for 11 days.
After 24 h, the cells are collected and mixed, and 100 ul of cells was used for luciferase quantification (OneGlo, Promega). The remainder of the cells were pelleted and resuspended in fresh X-vivo 15 media with 5% hAB serum, no 11-2 (supplemented with or without 1-500 nM Asunaprevir), and an additional 0.5×10^6 target cells were added.

[2] = tested on: CD22 positive target cells (Raji) killed by degron CAR T-cells; test: Cytolytic properties of C-terminal fusion degron CAR T-cells against luciferase-expressing Raji cells with Asunaprevir; conditions: 500 nM Asunaprevir; T-cells:Raji 3:1; 3 consecutive days; FIG. 7
Protocol: Data are normalized using untransduced human primary T-cells.
After 24 h the cells were pelleted, the supernatant was collected for luciferase quantification and the pelleted cells were resuspended in fresh complete X-vivo (supplemented or not with 500 nM Asunaprevir) media and 0.5×10^6 target cells (CD22 positive cells) were added.

[3] = tested on: degron CARs (anti-CD123, anti-CD22) with NS3 protease domain in primary human T-cells; test: Surface expression of C-terminal fusion degron CARs in primary human T-cells (flow cytometry, labeled recombinant CD22 or CD123); format: cell-based; conditions: 500 nM Asunaprevir for 48 h, FIG. 6
Source text: FIG. 6: Experimental results obtained with T-cells endowed with the CARs of the present invention. 6A: Percentage of CAR positive T-cells (presentation of anti-CD123 CARs at the surface of the transduced cells) in presence or absence of the protease inhibitor Asunaprevir. 6B: Percentage of CAR positive T-cells (presentation of anti-CD22 CARs at the surface of the transduced cells) in presence or absence of the protease inhibitor Asunaprevir). Controls are T-cells endowed with CARs lacking controlled degradation moiety (high presentation of CARs at the surface of the transduced cells). The percentage of CAR positive cells is measured by flow cytometry. Experimental details are provided in example 2.
3-5 days post transduction T-cells were incubated with or without 500 nM Asunaprevir for 48 h. The proportion of T-cells expressing the CAR at their surface was then quantified using labeled recombinant protein CD22 or CD123 targeted by the CAR (LakePharma).

[4] = tested on: CD22 positive Raji cells killed by anti-CD22 degron CAR T-cells; test: Cytolytic properties of anti-CD22 degron CAR T-cells after wash-out of Asunaprevir; conditions: 500 nM Asunaprevir, wash-out 48 h, 24 h or 0 h prior to cytotoxicity assay; Raji 3:1; FIGS. 8A and 8B
Protocol: A fraction of the cells is maintained under 500 nM of Asunaprevir (correspond to the no wash-out point).
After 24 h the cells are pelleted, the supernatant is collected for luciferase quantification.

[5] = tested on: anti-CD22 CAR T-cells co-cultured with Raji target cells; test: Cytokine profiling of anti-CD22 CAR T-cells co-cultured with Raji target cells in presence of Asunaprevir; format: cell-based, human; conditions: various concentrations of ASN, 24 hours co-culture with Raji; FIG. 10
Protocol: FIG. 10: Cytokine quantification after co-culture of anti-CD22 CAR T-cells with target cells as a function of Asunaprevir concentration (see example 6). Data are shown as the mean±SD of duplicates per points.
T-cells were co-cultured with Raji target cells in 12-well culture plates in the presence of various concentrations of ASN for 24 hours. Cells were spun down, and the supernatants were aliquoted and frozen. Cytokine levels in the supernatants were measured with LEGEND plex Human Th Cytokine panel (Biolegend).

T-cells = test: T-cell proliferation in presence of Asunaprevir; format: cell-based, human; conditions: 100 nM to 1 μM ASN; FIG. 9
Protocol: FIG. 9: Proliferation of T-cells in the presence of increasing concentrations of Asunaprevir (see example 5). The total number of cells at different days cultured in presence of 100 nM, 500 nM or 1000 nM relative to 0 nM ASN is presented. Data are shown as the median of PBMC from 2 donors done in duplicate.
T-cells were cultured in X-Vivo 15 (Lonza) supplemented with 5% human serum hAB (Gemini) and 20 ng/ml IL-2 (Miltenyi) at a density of 1×10^6 cells/ml in presence of various dose (0-1000 nM) of the Asunaprevir protease inhibitor.

## C=C[C@@H]1C[C@]1(NC(=O)[C@@H]1C[C@@H](Oc2ncc(OC)c3ccc(Cl)cc23)CN1C(=O)[C@@H](NC(=O)OC(C)(C)C)C(C)(C)C)C(=O)NS(=O)(=O)C1CC1 [Asunaprevir, asunaprevir]
[1]; 1 to 500 nM Asunaprevir, T-cells:Raji 3:1, FIG. 14
  CAR T-cells cytolytic properties (luciferase signal of target cells): controlled by addition of Asunaprevir
[1]; Homo sapiens, Raji, read-out: IC50 of control of CAR T-cells cytolytic properties
  IC50: ~15 nM
[2]
  CAR cytolytic properties (percentage of CD22 positive target cells killed): could be negatively controlled; also recorded: reduced
[3]; control CARs
  CAR presentation at the surface, control CARs lacking the self-excising degron: did not react
[3]; degron CARs anti-CD123 / anti-CD22
  CAR presentation at the surface of the transduced T-cells population: could be controlled by Asunaprevir
[4]
  CAR cytolytic properties after wash-out of Asunaprevir: controlled by Asunaprevir in a reversible manner
[5]
  cytokine production: did not result in notable variations
T-cells
  proliferation of the T-cells: no effects
  viability of the T-cells: no effects
